Assay results as given in PubChem BioAssay (NCI).
Several values for one entry are separate records, joined by “and”; a condition that tells them apart may be missing. Equal entries are not always repeated.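 In this assay, cells in 96-well plates receive the compound at five concentrations for 48 hours. Endpoints are linearly interpolated between the surrounding concentrations. GI50: concentration for 50% inhibition of growth. TGI denotes the concentration required for complete inhibition of growth.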 *1 amine or outer side, *2 acyl side, *3 side chain or, on linkers, in order; H or OH if unused. Where a SMILES comes first, the peptide text is derived from it. Bridges are numbered along the chain shown (N, C = ends). [ ]: non-standard residue; d: D form. The star is where a group is joined. X38 = CC[C@H](C)[C@@H](N[*:1])[C@@H](O)CC(=O)[*:2]; NMeY = CN[C@@H](Cc1ccc(O)cc1)C(=O)O; dNMeL = CN[C@H](CC(C)C)C(=O)O; Hiv = CC(C)[C@H](O)C(=O)O; Pyruvoyl = CC(=O)C(=O)*

How the values were obtained:
Test in all cases: NCI tumour cell line growth inhibition, 48 h
[1] = tested on: SK-OV-3 ovarian
[2] = tested on: DU-145 prostate
[3] = tested on: T-47D breast
[4] = tested on: SK-MEL-5 melanoma
[5] = tested on: A498 renal
[6] = tested on: HCC-2998 colon
[7] = tested on: HCT-15 colon
[8] = tested on: HCT-116 colon
[9] = tested on: NCI/ADR-RES ovarian
[10] = tested on: NCI-H226 lung

Compound	TGI [1] [µM]	TGI [2] [µM]	TGI [3] [µM]	TGI [4]	TGI [5] [µM]	TGI [6] [µM]	TGI [7] [µM]	TGI [8] [µM]	TGI [9] [µM]	TGI [10]	GI50 [1] [µM]	GI50 [3] [µM]	GI50 [4] [µM]	GI50 [5] [µM]	GI50 [7] [µM]	GI50 [9] [µM]	GI50 [10] [µM]	GI50 [2] [µM]	GI50 [6] [µM]	GI50 [8] [µM]
O=C1CC(=O)NC(=NN2C(=O)CSC2c2ccc(Cl)c(Cl)c2)N1 (configuration not stated)	> 100	> 100	> 100	> 100 µM	> 100	> 100	> 100	> 100	> 100	> 100 µM										
CCOC(=O)CCC(NC(=O)Cc1ccc(Nc2nc3ccccc3nc2-c2ccccc2)cc1)C(=O)OCC (configuration not stated)	> 100	> 100	> 100	> 100 µM	> 100	> 100	> 100	> 100	> 100	> 100 µM										
CCOC(=O)/C(C)=C\[C@@]1(C)O[C@@H](C)[C@@](C)(OC(C)=O)[C@@H]1OC(C)=O	> 100	> 100	59.8	> 100 µM	> 100	> 100	60.2	> 100	> 100	> 100 µM										
Cc1nn2c(=O)c([N+](=O)[O-])c(/C=C/c3ccccc3)nc2s1	> 40.5	> 100	> 100	11.2 µM	59	43.1	12.3	15.4	> 53	21.1 µM										
O=C(NC(C(F)(F)F)(C(F)(F)F)P(=O)(c1ccccc1)c1ccccc1)C(C(F)(F)F)C(F)(F)F	> 100	> 100	> 100	37 µM	> 100	> 100	83.3	39.1	47.9	> 100 µM										
CC1=NC(=O)C(C)(c2ccccc2)N1CCc1ccccc1 (configuration not stated)	> 100	> 100	> 100	> 100 µM	> 100	> 100	> 100	> 100	> 100	> 100 µM										
Fc1cc(C2=C[C@H](c3ccc(Cl)cc3)NC(=S)N2)c(Cl)cc1Cl	> 100	> 100	> 100	36.1 µM	89.6	79.8	> 100	> 100	> 100	> 100 µM										
O=C(O)C1C(C(=O)O)C2C(=O)C=CC1N2Cc1ccccc1 (configuration not stated)	17	6.17	15.2	17.2 µM	42.6	7.71	10.3	15.2	7.58	35.8 µM										
c1csc(-c2cscc2-c2ccsc2)c1	> 100	> 100	> 100	> 100 µM	> 100	> 89.6	> 100	> 100	> 100	> 78.9 µM										
COc1ccc(/C=C(\Cl)c2ccc(OC)c(OC)c2)cc1OC	> 100	> 100	> 100	> 100 µM	> 100	> 100	> 100	> 100	> 100	> 100 µM										
COc1cc2cc(C(=O)N3CC(CCl)c4c3cc(NC(=O)C(C)(C)c3ccccc3[N+](=O)[O-])c3ccccc43)[nH]c2c(OC)c1OC (configuration not stated)		28.2		7.81 µM and 35.1 µM		33.2		> 600		50 µM and 281 µM	70	61.5	11.3	59.1	13.2	11.3	118			
COc1ccc(Br)c2c1CC(C(=O)O)CC2 (configuration not stated)	> 100	> 100	> 100	> 100 µM	> 100	> 100	> 100	> 100	> 100	> 100 µM										
O=C1c2cc3c(cc2CC12Cc1cc4c(cc1C2=O)CCCC4)CCCC3	> 100	> 100	89.1	> 100 µM	> 100	> 100	> 100	> 100	> 100	> 100 µM										
Clc1cccc(Cl)c1C=NC12CC3CC(CC(C3)C1)C2	> 10	> 10	> 10	> 10 µM	> 10	> 10	> 10	> 10	> 10	> 10 µM										
COc1ccc(C2c3cc4c(cc3C(O)C3CCC(=O)N23)OCO4)cc1 (configuration not stated)	> 100	> 100	> 100	> 100 µM	> 100	> 100	> 100	> 100	> 100	> 100 µM										
N#CC1(C#N)C2CCCCC23OC(=N)C1(C#N)C(c1ccco1)O3 (configuration not stated)	> 100	90	51.8	31.3 µM	57.7	31	22.5	38.5	> 100	> 100 µM										
CCCCc1ccc(Nc2nc(Cl)c3c(ncn3COCCOC(C)=O)n2)cc1	42.9	30.5	34.6	36.2 µM	38.8	34.3	30.7	31.3	41.2	40.6 µM										
CC[C@H](C)[C@H]1NC(=O)[C@@H](NC(=O)[C@@H](CC(C)C)N(C)C(=O)[C@@H]2CCCN2C(=O)C(C)=O)[C@@H](C)OC(=O)[C@H](Cc2ccc(OC)cc2)N(C)C(=O)[C@@H]2CCCN2C(=O)[C@H](CC(C)C)NC(=O)[C@H](C(C)C)OC(=O)C[C@@H]1O (Pyruvoyl-P[dNMeL]T[X38][Hiv]LP[NMeY](Me); ester 3-C)	0.294	0.00299	0.0113	0.0102 µM	0.0904	0.00658	3.29	0.12	4.77	0.0331 µM										
COc1ccc2c(c1)CC[C@@H]1[C@@H]2CC[C@]2(C)C(=O)C3(CCCCC3)C[C@@H]12	> 100	> 100	> 100	> 100 µM	> 100	> 100	> 100	> 100	> 100	> 100 µM	> 100	> 100	> 100	> 100	> 100	> 100	> 100	> 100	> 100	> 100
Cc1occc1C(=S)Nc1ccc(Cl)c(C(=O)OCC(F)(F)F)c1	51.2	47.1	72.4	30.9 µM	30.5	35.1	45.3	33.1	40.1	35.9 µM										
O=C(c1ccc(Cl)cc1Cl)N(C(=O)N1CCC(c2ccccc2)CC1)c1ccccc1	> 100	> 100	> 100	> 100 µM	> 100	> 100	> 100	> 100	> 100	> 100 µM										
NC(=O)C(Nc1c(Cl)cccc1Cl)c1cc2cc(Br)ccc2nc1Cl (configuration not stated)	> 100	> 100	> 100	> 100 µM	> 100	> 100	> 100	> 100	> 100	> 100 µM										
C[C@@]12C=CC3C/C(=N\C(N)=S)C=C(CCCC4OCCO4)[C@]3(CC1)C2 (some centres not stated)	> 100	78.6	57.9	24.8 µM	33.1	34.2	53.6	26.8	54.3	55 µM										
CCCCCC(=O)Nc1n[nH]nc1C(N)=O	> 100	> 100	> 100	> 100 µM	> 100	> 100	> 100	> 100	> 100	> 100 µM										
O=c1[nH]c(=O)n(C2OC(CO)C(O)C(F)C2O)cc1F (configuration not stated)	> 100	> 100	> 100	> 100 µM	> 100	> 100	> 100	> 100	> 100	> 100 µM										
C=C(c1ccccc1)C1ON(C)CCc2cc(OC)c(OC)cc21 (configuration not stated)	> 100	> 100	> 100	66 µM	> 100	> 100	> 100	> 100	> 100	> 100 µM										
COC(=O)[C@H](Cc1ccccc1)NC(=O)NCCN(CCNC(=O)N[C@@H](Cc1ccccc1)C(=O)OC)C(=O)N[C@@H](Cc1ccccc1)C(=O)OC	> 60.8	41.6	49.6	37.4 µM	> 82.7	34.8	> 100	35.8	> 100	34.6 µM										
CC1(C)C(=O)N(O)C(C)(C)N1O	> 10	> 10	> 10	> 10 µM	> 10	> 10	> 10	> 10	> 10	> 10 µM										
